From article PMC5697638, “Identification of a Potent Phosphoinositide 3‐Kinase Pan Inhibitor Displaying a Strategic Carboxylic Acid Group and Development of Its Prodrugs” (Chemmedchem, 2017)
Where two headings read alike, the source gives them in different places.

Tests used:
Type in all cases: biochemical
[1] = biological target: T1, human PI3Kα (PIK3CA/PIK3R1) (Homo sapiens, UniProt P42336); assay: lipid kinase assay (ADP-Glo), PI3Kα; details: for IC50: mean of at least three determinations, 95 % confidence intervals; for inhibition at 1 µM: determined at 1 μM, at least triplicate, read-out: Inhibitory activity, PI3K isoform α
T1 construct: purchased ProQinase, Germany 1161‐1165‐1
T1 sequence (P42336 whole entry, canonical isoform): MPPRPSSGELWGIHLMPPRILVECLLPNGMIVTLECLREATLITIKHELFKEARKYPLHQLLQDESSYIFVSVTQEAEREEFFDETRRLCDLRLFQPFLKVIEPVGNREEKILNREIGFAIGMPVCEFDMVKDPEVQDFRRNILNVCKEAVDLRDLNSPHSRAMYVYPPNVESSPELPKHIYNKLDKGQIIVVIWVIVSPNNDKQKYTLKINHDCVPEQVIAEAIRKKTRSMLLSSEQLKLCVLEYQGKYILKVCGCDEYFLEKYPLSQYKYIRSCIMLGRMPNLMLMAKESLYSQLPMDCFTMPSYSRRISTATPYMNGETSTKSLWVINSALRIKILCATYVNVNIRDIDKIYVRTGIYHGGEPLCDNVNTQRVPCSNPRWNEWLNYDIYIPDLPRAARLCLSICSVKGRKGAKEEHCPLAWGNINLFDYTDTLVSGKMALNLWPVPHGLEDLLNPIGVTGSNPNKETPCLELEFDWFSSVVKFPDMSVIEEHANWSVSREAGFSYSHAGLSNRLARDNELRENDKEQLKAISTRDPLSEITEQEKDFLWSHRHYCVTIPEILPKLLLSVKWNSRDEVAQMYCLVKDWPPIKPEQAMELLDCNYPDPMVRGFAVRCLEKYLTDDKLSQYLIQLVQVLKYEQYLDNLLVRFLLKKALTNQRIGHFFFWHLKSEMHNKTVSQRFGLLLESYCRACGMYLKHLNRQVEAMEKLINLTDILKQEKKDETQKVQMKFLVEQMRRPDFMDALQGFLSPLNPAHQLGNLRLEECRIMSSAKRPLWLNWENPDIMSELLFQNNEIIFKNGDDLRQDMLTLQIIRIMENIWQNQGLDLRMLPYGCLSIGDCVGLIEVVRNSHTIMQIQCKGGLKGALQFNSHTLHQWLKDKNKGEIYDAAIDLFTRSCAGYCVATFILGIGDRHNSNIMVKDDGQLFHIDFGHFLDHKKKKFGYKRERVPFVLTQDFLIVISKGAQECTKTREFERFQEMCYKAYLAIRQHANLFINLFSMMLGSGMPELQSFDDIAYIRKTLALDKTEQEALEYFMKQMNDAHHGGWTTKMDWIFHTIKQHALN
T1 sequence (P27986 whole entry partner, canonical isoform): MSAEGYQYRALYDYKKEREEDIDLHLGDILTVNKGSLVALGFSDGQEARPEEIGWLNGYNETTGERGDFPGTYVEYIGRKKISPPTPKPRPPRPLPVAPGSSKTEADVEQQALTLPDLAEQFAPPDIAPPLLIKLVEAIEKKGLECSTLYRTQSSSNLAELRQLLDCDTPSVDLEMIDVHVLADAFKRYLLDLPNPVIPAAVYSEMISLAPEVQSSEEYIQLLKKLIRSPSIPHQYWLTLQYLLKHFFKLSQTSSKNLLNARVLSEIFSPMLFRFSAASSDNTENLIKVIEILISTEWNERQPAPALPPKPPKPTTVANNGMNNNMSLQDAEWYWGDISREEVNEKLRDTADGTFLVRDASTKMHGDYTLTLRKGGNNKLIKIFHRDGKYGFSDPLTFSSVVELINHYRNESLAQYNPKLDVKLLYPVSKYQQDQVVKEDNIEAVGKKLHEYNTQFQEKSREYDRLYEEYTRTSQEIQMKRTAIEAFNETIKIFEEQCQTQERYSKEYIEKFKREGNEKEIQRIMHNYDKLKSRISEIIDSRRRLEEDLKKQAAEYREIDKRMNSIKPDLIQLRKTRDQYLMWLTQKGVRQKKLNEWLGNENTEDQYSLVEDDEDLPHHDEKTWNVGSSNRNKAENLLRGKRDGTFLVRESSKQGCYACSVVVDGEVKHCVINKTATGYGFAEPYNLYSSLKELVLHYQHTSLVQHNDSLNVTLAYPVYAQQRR
Method: (§1) In vitro selection, lipid kinase assay: To determine the inhibitory activity of the new molecular entities on PI3K enzyme, a lipid kinase assay was performed: recombinant proteins (30 ng), human PI3Kα (PIK3CA/PIK3R1, #1161‐1165‐1 ProQinase–Germany), hPI3Kβ (PIK3CB wt/PIK3R1, #1168‐1165‐1 ProQinase, Germany), hPI3Kγ (PIK3CG, #1163‐0000‐1 ProQinase, Germany), hPI3Kδ (PIK3CD/PIK3R1, #1162–1165‐1 ProQinase, Germany), hPI3K‐C2α (PIK3C2A, #14‐906 Merck Millipore_Merck KGaA, Germany), hPI3K‐C2β (PIK3C2B, #14‐907 Merck Millipore_Merck KGaA, Germany), hPI3K‐c2γ (PIK3C2G, #1207‐0000‐1 ProQinase, Germany), and hVps34 (PIK3C3, #1160‐0000‐1 ProQinase, Germany), were incubated in kinase buffer {12.5 μL; 20 mM Tris‐HCl pH 7.5, 10 mM MgCl2, 10 μM ATP, 0.05 mg mL^−1 BSA, 0.5 mM EDTA, 5 mM HEPES pH 7.5, for PI3Kα,PI3Kβ, PI3Kγ, PI3Kδ, PI3KC‐2α, and PI3KC‐2γ; 15 mM MnCl2, 5 mM EGTA, 100 μM ATP, 50 mM HEPES pH 7.5, 100 mM NaCl, and 0.03 % CHAPS for PI3K‐C2β and VPS34 {BSA=bovine serum albumin; EDTA=ethylenediaminetetraacetic acid; HEPES=4‐(2‐hydroxyethyl)‐1‐piperazineethanesulfonic acid; EGTA=ethylene glycol‐bis(2‐aminoethylether)‐N,N,N′,N′‐tetraacetic acid; CHAPS=3‐[(3‐cholamidopropyl)dimethylammonio]‐1‐propanesulfonate}. In the reaction, the ATP concentration used for different PI3Ks was defined on the basis of the Michaelis–Menten kinetics of each enzyme, provided by the supplier. Reaction was performed in presence of 0.5 mg mL^−1 lipid micelles (1:1 phosphatidylinositol/phosphatidylserine) and in the absence (DMSO alone) or presence of increasing concentrations of each compound (from 0.1 nM to 30 μM). The mixture was kept at room temperature (RT) for 30 min for PI3Kα, PI3Kβ, PI3Kγ, PI3Kδ, PI3KC‐2α, and PI3KC‐2γ and for 1 h for PI3K‐C2β and PI3K‐C3. The amount of ADP produced in the reaction was measured by using the ADP‐Glo Kinase Assay kit from Promega (#V9102) and a luminescence reader (Glomax multi detection system, Promega, model number 9301‐010).
(§2) The residual PI3K lipid kinase activity in the presence of each molecule at different concentrations was related to the control, intended as the recombinant protein in the presence of DMSO alone and was expressed as a percentage. To derive the IC50 value, all data (% of lipid kinase activity) were plotted on a dose–response curve (Graph Pad software), and the IC50 was calculated by using nonlinear regression fit (equation [log agonist] versus response).

[2] = biological target: T2, hPI3Kβ (PIK3CB wt/PIK3R1) (Homo sapiens, UniProt P42338); assay: lipid kinase assay (ADP-Glo), PI3Kβ; details: for IC50: Table 2, mean of at least three determinations, 95 % confidence intervals; for inhibition at 1 µM: determined at 1 μM, at least triplicate, read-out: Inhibitory activity, PI3K isoform β
T2 construct: purchased ProQinase, Germany 1168‐1165‐1
T2 sequence (P42338 whole entry, canonical isoform): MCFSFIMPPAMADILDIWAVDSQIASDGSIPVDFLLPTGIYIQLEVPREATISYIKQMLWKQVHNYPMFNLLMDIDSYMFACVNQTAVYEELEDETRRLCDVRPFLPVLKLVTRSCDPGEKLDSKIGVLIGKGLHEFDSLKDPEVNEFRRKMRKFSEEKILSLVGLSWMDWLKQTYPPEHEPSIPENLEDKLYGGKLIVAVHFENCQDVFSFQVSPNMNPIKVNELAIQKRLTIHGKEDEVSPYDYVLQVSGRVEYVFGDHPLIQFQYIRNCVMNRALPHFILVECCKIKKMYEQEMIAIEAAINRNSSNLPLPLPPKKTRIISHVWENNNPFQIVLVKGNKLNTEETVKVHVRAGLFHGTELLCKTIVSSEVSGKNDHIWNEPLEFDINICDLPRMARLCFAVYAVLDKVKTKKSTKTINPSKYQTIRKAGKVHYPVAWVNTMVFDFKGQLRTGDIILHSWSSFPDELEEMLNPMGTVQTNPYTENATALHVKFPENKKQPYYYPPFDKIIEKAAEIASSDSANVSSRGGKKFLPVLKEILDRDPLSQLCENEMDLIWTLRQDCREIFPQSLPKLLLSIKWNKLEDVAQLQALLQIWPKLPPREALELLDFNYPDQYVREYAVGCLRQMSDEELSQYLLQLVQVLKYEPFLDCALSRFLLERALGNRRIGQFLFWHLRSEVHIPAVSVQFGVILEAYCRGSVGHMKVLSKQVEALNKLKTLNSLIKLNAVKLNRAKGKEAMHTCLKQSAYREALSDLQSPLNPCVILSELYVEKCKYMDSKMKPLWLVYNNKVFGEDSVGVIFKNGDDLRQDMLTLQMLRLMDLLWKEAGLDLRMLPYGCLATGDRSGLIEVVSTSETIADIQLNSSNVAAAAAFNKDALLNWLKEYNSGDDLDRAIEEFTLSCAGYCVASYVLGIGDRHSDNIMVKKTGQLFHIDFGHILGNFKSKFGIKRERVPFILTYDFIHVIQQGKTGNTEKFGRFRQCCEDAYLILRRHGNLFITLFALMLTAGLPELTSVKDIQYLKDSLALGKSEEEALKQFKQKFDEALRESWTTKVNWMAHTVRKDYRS
T2 sequence (P27986 whole entry partner, canonical isoform): as the sequence (P27986 whole entry partner, canonical isoform) above
Method: as §1, §2

hPI3Kγ (PIK3CG) = biological target: T3, hPI3Kγ (PIK3CG) (Homo sapiens, UniProt P48736); assay: lipid kinase assay (ADP-Glo), PI3Kγ; details: for IC50: Table 2, mean of at least three determinations, 95 % confidence intervals; for inhibition at 1 µM: determined at 1 μM, at least triplicate, read-out: Inhibitory activity, PI3K isoform γ
T3 construct: purchased ProQinase, Germany 1163‐0000‐1
T3 sequence (P48736 whole entry, canonical isoform): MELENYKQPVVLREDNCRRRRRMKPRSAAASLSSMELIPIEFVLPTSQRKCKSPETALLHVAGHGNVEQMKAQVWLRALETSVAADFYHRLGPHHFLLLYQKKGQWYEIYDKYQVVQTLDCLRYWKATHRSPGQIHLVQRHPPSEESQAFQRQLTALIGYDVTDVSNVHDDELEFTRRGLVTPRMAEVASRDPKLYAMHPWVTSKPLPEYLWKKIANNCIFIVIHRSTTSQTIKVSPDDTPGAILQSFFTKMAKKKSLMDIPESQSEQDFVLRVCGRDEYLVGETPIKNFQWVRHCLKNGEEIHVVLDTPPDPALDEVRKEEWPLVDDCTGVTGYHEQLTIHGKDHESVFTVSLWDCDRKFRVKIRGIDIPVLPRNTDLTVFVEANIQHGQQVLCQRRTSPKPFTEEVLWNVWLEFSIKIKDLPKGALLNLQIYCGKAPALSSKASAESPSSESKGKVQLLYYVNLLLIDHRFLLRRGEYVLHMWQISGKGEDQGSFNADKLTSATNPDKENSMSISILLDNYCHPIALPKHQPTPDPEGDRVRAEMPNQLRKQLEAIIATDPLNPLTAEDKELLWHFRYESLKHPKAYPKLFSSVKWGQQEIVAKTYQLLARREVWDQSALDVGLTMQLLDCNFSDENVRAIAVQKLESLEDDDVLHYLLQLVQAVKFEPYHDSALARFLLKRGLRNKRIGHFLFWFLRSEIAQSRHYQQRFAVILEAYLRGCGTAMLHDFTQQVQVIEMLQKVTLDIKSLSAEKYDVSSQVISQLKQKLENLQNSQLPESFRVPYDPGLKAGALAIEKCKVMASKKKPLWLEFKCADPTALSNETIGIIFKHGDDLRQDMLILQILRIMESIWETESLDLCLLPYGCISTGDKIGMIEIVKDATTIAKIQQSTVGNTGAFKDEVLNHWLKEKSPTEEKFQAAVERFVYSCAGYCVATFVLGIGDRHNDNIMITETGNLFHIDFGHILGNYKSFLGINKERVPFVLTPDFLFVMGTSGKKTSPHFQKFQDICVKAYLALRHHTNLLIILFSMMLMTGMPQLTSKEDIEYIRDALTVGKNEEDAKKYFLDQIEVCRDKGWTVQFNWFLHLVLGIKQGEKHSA
Method: as §1, §2

hPI3Kδ (PIK3CD/PIK3R1) = biological target: T4, hPI3Kδ (PIK3CD/PIK3R1) (Homo sapiens, UniProt O00329); assay: lipid kinase assay (ADP-Glo), PI3Kδ; details: for IC50: Table 2, mean of at least three determinations, 95 % confidence intervals; for inhibition at 1 µM: determined at 1 μM, at least triplicate, read-out: Inhibitory activity, PI3K isoform δ
T4 construct: purchased ProQinase, Germany 1162–1165‐1
T4 sequence (O00329 whole entry, canonical isoform): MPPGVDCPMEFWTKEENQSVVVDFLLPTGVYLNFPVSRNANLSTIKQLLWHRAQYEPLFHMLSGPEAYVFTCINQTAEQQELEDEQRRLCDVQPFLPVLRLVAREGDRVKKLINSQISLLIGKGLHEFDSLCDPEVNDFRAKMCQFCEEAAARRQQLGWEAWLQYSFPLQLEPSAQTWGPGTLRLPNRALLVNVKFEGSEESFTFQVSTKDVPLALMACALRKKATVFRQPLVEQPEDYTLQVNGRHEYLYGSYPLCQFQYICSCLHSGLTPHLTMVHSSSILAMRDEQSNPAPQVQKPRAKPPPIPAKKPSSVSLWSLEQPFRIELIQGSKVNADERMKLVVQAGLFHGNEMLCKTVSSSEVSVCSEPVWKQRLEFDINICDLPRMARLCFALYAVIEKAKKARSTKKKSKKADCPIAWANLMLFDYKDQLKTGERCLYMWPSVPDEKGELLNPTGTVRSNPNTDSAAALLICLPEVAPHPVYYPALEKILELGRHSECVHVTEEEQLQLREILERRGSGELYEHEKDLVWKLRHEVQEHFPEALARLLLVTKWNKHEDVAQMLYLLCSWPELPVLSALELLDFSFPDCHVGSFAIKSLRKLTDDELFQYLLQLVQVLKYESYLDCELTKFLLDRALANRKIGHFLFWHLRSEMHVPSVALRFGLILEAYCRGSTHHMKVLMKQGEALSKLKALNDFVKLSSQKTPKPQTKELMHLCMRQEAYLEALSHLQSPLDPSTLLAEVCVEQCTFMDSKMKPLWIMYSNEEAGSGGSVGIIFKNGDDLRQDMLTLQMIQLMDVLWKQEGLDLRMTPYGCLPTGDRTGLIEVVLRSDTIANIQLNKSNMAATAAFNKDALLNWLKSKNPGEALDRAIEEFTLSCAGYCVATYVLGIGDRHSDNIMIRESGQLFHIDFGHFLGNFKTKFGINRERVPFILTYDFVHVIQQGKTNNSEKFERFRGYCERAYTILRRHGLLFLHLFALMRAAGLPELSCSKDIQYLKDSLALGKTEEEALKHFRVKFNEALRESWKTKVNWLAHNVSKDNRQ
T4 sequence (P27986 whole entry partner, canonical isoform): as the sequence (P27986 whole entry partner, canonical isoform) above
Method: as §1, §2

[3] = Table 3, analogues of 37, read-out: IC50 against PI3Kα

| Compound | inhibition at 1 µM [1] | inhibition at 1 µM [2] | inhibition at 1 µM (hPI3Kγ (PIK3CG)) | inhibition at 1 µM (hPI3Kδ (PIK3CD/PIK3R1)) | IC50 [1, 3] | other results |
| --- | --- | --- | --- | --- | --- | --- |
| COc1ccc(-n2cc(-c3cccc4c(=O)cc(N5CCOCC5)[nH]c34)nn2)cc1O [Compound 27, 8‐[1‐(3‐Hydroxy‐4‐methoxyphenyl)‐1H‐1,2,3‐triazol‐4‐yl]‐2‐morpholinoquinolin‐4(1H)‐one] | < 50% | < 50% | < 50% | < 50% | – | – |
| O=c1cc(N2CCOCC2)[nH]c2c(-c3cn(-c4ccc(Cl)cc4)nn3)cccc12 [Compound 28, 8‐[1‐(4‐Chlorophenyl)‐1H‐1,2,3‐triazol‐4‐yl]‐2‐morpholinoquinolin‐4(1H)‐one] | < 50% | < 50% | < 50% | < 50% | – | – |
| O=c1cc(N2CCOCC2)[nH]c2c(-c3cn(-c4ccc(OC(F)(F)F)cc4)nn3)cccc12 [Compound 29, 2‐Morpholino‐8‐{1‐[4‐(trifluoromethoxy)phenyl]‐1H‐1,2,3‐triazol‐4‐yl}quinolin‐4(1H)‐one] | < 50% | < 50% | < 50% | < 50% | – | – |
| COc1ccc(-n2cc(-c3cccc4c(=O)cc(N5CCOCC5)[nH]c34)nn2)cc1[N+](=O)[O-] [Compound 30, 8‐[1‐(4‐Methoxy‐3‐nitrophenyl)‐1H‐1,2,3‐triazol‐4‐yl]‐2‐morpholinoquinolin‐4(1H)‐one] | < 50% | < 50% | < 50% | < 50% | – | – |
| N#CCc1ccc(-n2cc(-c3cccc4c(=O)cc(N5CCOCC5)[nH]c34)nn2)cc1 [Compound 33, 2‐{4‐[4‐(2‐Morpholino‐4‐oxo‐1,4‐dihydroquinolin‐8‐yl)‐1H‐1,2,3‐triazol‐1‐yl]phenyl} acetonitrile] | < 50% | < 50% | < 50% | < 50% | – | – |
| O=c1cc(N2CCOCC2)[nH]c2c(-c3cn(-c4ccc5ccccc5c4)nn3)cccc12 [Compound 34, 2‐Morpholino‐8‐[1‐(naphthalen‐2‐yl)‐1H‐1,2,3‐triazol‐4‐yl]quinolin‐4(1H)‐one] | < 50% | < 50% | < 50% | < 50% | – | – |
| O=c1cc(N2CCOCC2)[nH]c2c(-c3cn(-c4cnc5ccccc5c4)nn3)cccc12 [Compound 36, 2‐Morpholino‐8‐[1‐(quinolin‐3‐yl)‐1H‐1,2,3‐triazol‐4‐yl]quinolin‐4(1H)‐one] | < 50% | < 50% | < 50% | < 50% | – | – |
| O=C(O)CCCCn1cc(-c2cccc3c(=O)cc(N4CCOCC4)[nH]c23)nn1 [Compound 56, 5‐[4‐(2‐Morpholino‐4‐oxo‐1,4‐dihydroquinolin‐8‐yl)‐1H‐1,2,3‐triazol‐1‐yl]pentanoic acid] | – | – | – | – | > 1 µM | – |
| O=C(O)CCCCCn1cc(-c2cccc3c(=O)cc(N4CCOCC4)[nH]c23)nn1 [Compound 57] | – | – | – | – | > 1 µM | – |

The next lines start with results.

| inhibition at 1 µM [1] | inhibition at 1 µM [2] | inhibition at 1 µM (hPI3Kγ (PIK3CG)) | inhibition at 1 µM (hPI3Kδ (PIK3CD/PIK3R1)) | IC50 [1, 3] | Compound | other results |
| --- | --- | --- | --- | --- | --- | --- |
| > 50% | < 50% | < 50% | > 50% | – | O=c1cc(N2CCOCC2)[nH]c2c(-c3cn(-c4ccccc4)nn3)cccc12 [Compound 25, 2‐Morpholino‐8‐(1‐phenyl‐1H‐1,2,3‐triazol‐4‐yl)quinolin‐4(1H)‐one] | IC50 ([1]; Table 2, read-out: IC50 PI3Kα): 0.74 ± 0.31 µM; IC50 [2]: 5.5 ± 2.5 µM; IC50 (hPI3Kγ (PIK3CG)): 3 ± 1 µM; IC50 (hPI3Kδ (PIK3CD/PIK3R1)): 0.61 ± 0.27 µM |
| < 50% | < 50% | < 50% | < 50% | – | O=c1cc(N2CCOCC2)[nH]c2c(-c3cn(-c4cccc(O)c4)nn3)cccc12 [Compound 26, 8‐[1‐(3‐Hydroxyphenyl)‐1H‐1,2,3‐triazol‐4‐yl]‐2‐morpholinoquinolin‐4(1H)‐one] | – |
| < 50% | < 50% | < 50% | < 50% | – | COC(=O)c1ccc(Cn2cc(-c3cccc4c(=O)cc(N5CCOCC5)[nH]c34)nn2)cc1 [Compound 31, Methyl‐4‐{[4‐(2‐morpholino‐4‐oxo‐1,4‐dihydroquinolin‐8‐yl)‐1H‐1,2,3‐triazol‐1‐yl]methyl}benzoate] | – |
| < 50% | < 50% | < 50% | < 50% | – | Nc1ccc(-n2cc(-c3cccc4c(=O)cc(N5CCOCC5)[nH]c34)nn2)cc1 [Compound 32, 8‐[1‐(4‐Aminophenyl)‐1H‐1,2,3‐triazol‐4‐yl]‐2‐morpholinoquinolin‐4(1H)‐one] | – |
| < 50% | < 50% | < 50% | > 50% | – | COc1cccc(-n2cc(-c3cccc4c(=O)cc(N5CCOCC5)[nH]c34)nn2)c1 [Compound 35, 8‐[1‐(3‐Methoxyphenyl)‐1H‐1,2,3‐triazol‐4‐yl]‐2‐morpholinoquinolin‐4(1H)‐one] | IC50 ([1]; Table 2, read-out: IC50 PI3Kα): 1.3 ± 0.7 µM; IC50 [2]: 9.3 ± 5.8 µM; IC50 (hPI3Kγ (PIK3CG)): 4.2 ± 2.1 µM; IC50 (hPI3Kδ (PIK3CD/PIK3R1)): 0.81 ± 0.36 µM |
| < 50% | < 50% | < 50% | < 50% | – | COc1ccc(NC(C)=O)cc1-n1cc(-c2cccc3c(=O)cc(N4CCOCC4)[nH]c23)nn1 [Compound 38, N ‐{4‐Methoxy‐3‐[4‐(2‐morpholino‐4‐oxo‐1,4‐dihydroquinolin‐8‐yl)‐1H‐1,2,3‐triazol‐1‐yl]phenyl}acetamide] | – |
| – | – | – | – | > 1 µM | O=C(O)CCCn1cc(-c2cccc3c(=O)cc(N4CCOCC4)[nH]c23)nn1 [Compound 55, 4‐[4‐(2‐Morpholino‐4‐oxo‐1,4‐dihydroquinolin‐8‐yl)‐1H‐1,2,3‐triazol‐1‐yl]butanoic acid] | – |
| – | – | – | – | > 1 µM | CS(=O)(=O)NC(=O)c1cccc(Cn2cc(-c3cccc4c(=O)cc(N5CCOCC5)[nH]c34)nn2)c1 [Compound 58, N ‐(Methylsulfonyl)‐3‐{[4‐(2‐morpholino‐4‐oxo‐1,4‐dihydroquinolin‐8‐yl)‐1H‐1,2,3‐triazol‐1‐yl]methyl}benzamide] | – |
| – | – | – | – | 0.8 ± 0.74 µM | NC(=O)c1cccc(Cn2cc(-c3cccc4c(=O)cc(N5CCOCC5)[nH]c34)nn2)c1 [Compound 59, 3‐{[4‐(2‐Morpholino‐4‐oxo‐1,4‐dihydroquinolin‐8‐yl)‐1H‐1,2,3‐triazol‐1‐yl]methyl}benzamide] | – |
| – | – | – | – | 0.14 ± 0.09 µM | O=C(NCc1ccccc1)c1cccc(Cn2cc(-c3cccc4c(=O)cc(N5CCOCC5)[nH]c34)nn2)c1 [Compound 60, N ‐Benzyl‐3‐{[4‐(2‐morpholino‐4‐oxo‐1,4‐dihydroquinolin‐8‐yl)‐1H‐1,2,3‐triazol‐1‐yl]methyl}benzamide] | – |
| – | – | – | – | 0.25 ± 0.08 µM | O=C(NC1CC1)c1cccc(Cn2cc(-c3cccc4c(=O)cc(N5CCOCC5)[nH]c34)nn2)c1 [Compound 61, N ‐Cyclopropyl‐3‐{[4‐(2‐morpholino‐4‐oxo‐1,4‐dihydroquinolin‐8‐yl)‐1H‐1,2,3‐triazol‐1‐yl]methyl}benzamide] | – |
| – | – | – | – | 0.29 ± 0.08 µM | CCN(CC)C(=O)c1cccc(Cn2cc(-c3cccc4c(=O)cc(N5CCOCC5)[nH]c34)nn2)c1 [Compound 62, N,N ‐Diethyl‐3‐{[4‐(2‐morpholino‐4‐oxo‐1,4‐dihydroquinolin‐8‐yl)‐1H‐1,2,3‐triazol‐1‐yl]methyl}benzamide] | – |
| – | – | – | – | > 1 µM | O=c1cc(N2CCOCC2)[nH]c2c(-c3cn(Cc4cccc(-c5nnn[nH]5)c4)nn3)cccc12 [Compound 63, 8‐{1‐[3‐(1H‐Tetrazol‐5‐yl)benzyl]‐1H‐1,2,3‐triazol‐4‐yl}‐2‐morpholinoquinolin‐4(1H)‐one] | – |
